ChEMBL document CHEMBL6087437 (J Med Chem, 2025)
The source made the active and inactive calls. The rule behind the calls is not given here.

What was measured:
Ebolavirus [1] = test: Antiviral activity against wildtype Ebola virus infected in human HeLa cells incubated for 40 hrs by Hoechst 33342 staining based Cytation-1 automated microscopic analysis; assay type: functional, organism-based; settings: Orthoebolavirus
Marburgvirus = test: Antiviral activity against pseudotyped Marburg virus expressing glycoprotein infected in human A549 cells assessed as inhibition of viral entry incubated for 48 hrs by Neolite reporter gene assay; assay type: functional, organism-based; settings: Orthomarburgvirus, A549, 48 h
[2] = Selectivity index, ratio of CC50 for human HeLa cells to EC50 for antiviral activity against wildtype Ebolavirus infected in human HeLa cells; assay type: toxicity, cell-based; settings: read-out: Ratio CC50/EC50
HeLa = test: Cytotoxicity against human HeLa cells by Celltiter-Glo luminescent cell viability assay; assay type: toxicity, cell-based
Ebolavirus [3] = test: Antiviral activity against pseudotyped Ebola virus expressing glycoprotein infected in human A549 cells assessed as inhibition of viral entry incubated for 48 hrs by Neolite reporter gene assay; assay type: functional, organism-based; settings: Orthoebolavirus, A549, 48 h
[4] = Selectivity index, ratio of CC50 for human A549 cells to EC50 for pseudotyped Ebola virus expressing glycoprotein infected in human A549 cells; assay type: toxicity, cell-based; settings: read-out: Ratio CC50/EC50
Bundibugyo virus = test: Antiviral activity against pseudotyped Bundibugyo ebolavirus expressing glycoprotein infected in human A549 cells assessed as inhibition of viral entry incubated for 48 hrs by Neolite reporter gene assay; assay type: functional, organism-based; settings: A549, 48 h
Sudan ebolavirus = test: Antiviral activity against pseudotyped Sudan ebolavirus expressing glycoprotein infected in human A549 cells assessed as inhibition of viral entry incubated for 48 hrs by Neolite reporter gene assay; assay type: functional, organism-based; settings: A549, 48 h
Zaire ebolavirus = test: Antiviral activity against pseudotyped Zaire ebolavirus expressing glycoprotein infected in human A549 cells assessed as inhibition of viral entry incubated for 48 hrs by Neolite reporter gene assay; assay type: functional, organism-based; settings: A549, 48 h
[5] = tested on: Vesicular stomatitis virus; test: Antiviral activity against pseudotyped vesicular stomatitis virus expressing glycoprotein infected in human A549 cells assessed as inhibition of viral entry incubated for 48 hrs by Neolite reporter gene assay; assay type: functional, organism-based
Reston ebolavirus = test: Antiviral activity against pseudotyped Reston ebolavirus expressing glycoprotein infected in human A549 cells assessed as inhibition of viral entry incubated for 48 hrs by Neolite reporter gene assay; assay type: functional, organism-based; settings: A549, 48 h
Influenza A virus = test: Antiviral activity against pseudotyped Influenza A virus A/Goose/Qinghai/59/05(H5N1) infected in human A549 cells assessed as inhibition of viral entry incubated for 48 hrs by Neolite reporter gene assay; assay type: functional, organism-based
Tai Forest ebolavirus = test: Antiviral activity against pseudotyped Tai Forest ebolavirus expressing glycoprotein infected in human A549 cells assessed as inhibition of viral entry incubated for 48 hrs by Neolite reporter gene assay; assay type: functional, organism-based; settings: A549, 48 h
Ebolavirus [6] = test: Binding affinity to Ebolavirus glycoprotein by SPR analysis

SMILES | EC50 (Marburgvirus) | EC50 (Ebolavirus [3]) | selectivity ratio [4] | also measured
O=C(Nc1ccc(CN2CCOCC2)cc1)Nc1ccc(C23CC4CC(CC(C4)C2)C3)cc1 | 2580 nM | 370 nM | 32 | EC50 (Ebolavirus [1]): 700 nM; selectivity ratio [2]: 24; CC50 (HeLa): 16600 nM
CC1CCN(c2ccc(N(CC3CC3)C(=O)c3ccc(CN4CCOCC4)cc3)cc2C(F)(F)F)CC1 | 4610 nM | 1820 nM | 22 | –
CC1CCN(c2ccc(NC(=O)c3ccc(CN4CCOCC4)cc3)cn2)CC1 | 24400 nM | 12400 nM | 8 | –
CC1(C)CCN(c2ccc(NC(=O)c3ccc(CN4CCOCC4)cc3)cc2C(F)(F)F)C1 | 1450 nM | 190 nM | 321 | –
CC1CCN(c2ccc(NC(=O)c3ccc(CN4C[C@@H]5C[C@H]4CO5)cc3)cc2C(F)(F)F)CC1 | 1340 nM | 230 nM | 86 | –
CC1CCN(c2ccc(C(=O)Nc3ccc(CN4CCOCC4)cc3)cc2C(F)(F)F)CC1 | 2900 nM | 1030 nM | 23 | –
CC1CC(C)CN(c2ccc(NC(=O)c3ccc(CN4CCOCC4)cc3)cc2C(F)(F)F)C1 (stereo not given) | 5340 nM | 1070 nM | 52 | –
CC1CCN(c2ccc(NC(=O)Nc3ccc(CN4CCOCC4)cc3)cc2C(F)(F)F)CC1 | 3490 nM | 2180 nM | 7 | –
O=C(Nc1ccc(C23CC4CC(CC(O)(C4)C2)C3)cc1)c1ccc(CN2CCOCC2)cc1 | 25000 nM | 64600 nM | – | –
CC1CCN(c2ccc(NC(=O)c3ccc(CN4CCOCC4)nc3)cc2C(F)(F)F)CC1 | 1120 nM | 400 nM | 138 | –
CC(C)(C)c1ccc(NC(=O)c2ccc(CN3CCOCC3)cc2)c(C(C)(C)C)c1 | 17100 nM | 3320 nM | 30 | –
O=C(Nc1ccc(N2CCC3(CCC3)CC2)c(C(F)(F)F)c1)c1ccc(C(=O)N2C[C@H]3C[C@@H]2CO3)nc1 | 3890 nM | 230 nM | 201 | EC50 (Ebolavirus [1]): 890 nM; selectivity ratio [2]: 49; EC50 (Bundibugyo virus): 1190 nM; EC50 (Sudan ebolavirus): 1610 nM; EC50 (Zaire ebolavirus): 230 nM; inhibition [5]: Weak_effect; EC50 (Reston ebolavirus): 260 nM; CC50 (HeLa): 43400 nM; inhibition (Influenza A virus): Weak_effect; EC50 (Tai Forest ebolavirus): 130 nM
CC1CCN(c2ccc(N(C)C(=O)c3ccc(CN4CCOCC4)cc3)cc2C(F)(F)F)CC1 | 7560 nM | 1550 nM | 33 | –
CC1CCN(c2ccc(NC(=O)c3ccc(CN4CCOCC4)cc3)cc2F)CC1 | > 100000 nM | > 100000 nM | > 1 | –
CC1CCN(c2ccc(NC(=O)c3ccc(CN4C[C@@H]5C[C@H]4CO5)nc3)cc2C(F)(F)F)CC1 | 3430 nM | 310 nM | 149 | Activity (Ebolavirus [6]): Active
O=C(N[C@]12CC3CC(C[C@@H](C3)C1)C2)c1ccc(CN2CCOCC2)cc1 | 53800 nM | 6270 nM | 16 | –
O=C(Nc1ccc(N2CC3(CCC3)C2)c(C(F)(F)F)c1)c1ccc(CN2CCOCC2)cc1 | 3650 nM | 860 nM | 116 | –
O=C(Nc1ccc(N2CCCC2)c(C(F)(F)F)c1)c1ccc(CN2CCOCC2)cc1 | 14900 nM | 3300 nM | 18 | –
O=C(c1ccc(CN2CCOCC2)cc1)N(c1ccccc1)c1ccccc1 | 71100 nM | 6720 nM | > 15 | –

SMILES | EC50 (Marburgvirus) | EC50 (Ebolavirus [3]) | selectivity ratio [4] | also measured
O=C(Nc1ccc(N2CCC2)c(C(F)(F)F)c1)c1ccc(CN2CCOCC2)cc1 | 42400 nM | 14900 nM | 6 | –
O=C(Nc1ccc(C23CC4CC(CC(C4)C2)C3)cc1)c1ccc(CN2C[C@@H]3C[C@H]2CO3)cc1 | 1330 nM | 200 nM | 77 | Activity (Ebolavirus [6]): Active; EC50 (Ebolavirus [1]): 610 nM; selectivity ratio [2]: 17; CC50 (HeLa): 10300 nM
CC1CCN(c2ccc(NC(=O)c3ccc(CN4CCOCC4)cc3)cc2Cl)CC1 | 18500 nM | 4320 nM | 6 | –
O=C(Nc1ccc(N2CCOCC2)c(C(F)(F)F)c1)c1ccc(CN2CCOCC2)cc1 | 6970 nM | 490 nM | 69 | –
CC(C)(C)C1CCN(c2ccc(NC(=O)c3ccc(CN4CCOCC4)cc3)cc2C(F)(F)F)CC1 | 6150 nM | 1450 nM | 13 | –
CC(C)C1CCN(c2ccc(NC(=O)c3ccc(CN4CCOCC4)cc3)cc2C(F)(F)F)CC1 | 5640 nM | 560 nM | 28 | –
O=C(Nc1csc(N2CCOCC2)n1)c1ccc(CN2CCOCC2)cc1 | > 100000 nM | > 100000 nM | > 1 | –
O=C(Nc1ccc(SC(F)(F)F)c(Cl)c1)c1ccc(CN2CCOCC2)cc1 | 8430 nM | 4950 nM | 5 | –
O=C(Nc1ccc(C23CC4CC(CC(C4)C2)C3)cc1)c1ccc(CN2C[C@@H]3C[C@H]2CO3)nc1 | 2800 nM | 230 nM | 258 | Activity (Ebolavirus [6]): Active
CC1CCN(c2ccc(NC(=O)c3ccc(CN4C[C@@H]5C[C@H]4CO5)cn3)cc2C(F)(F)F)CC1 | 8230 nM | 290 nM | 345 | –
O=C(Nc1ccc(N2CCC3(CCC3)CC2)c(C(F)(F)F)c1)c1ccc(CN2C[C@H]3C[C@@H]2CO3)nc1 | 880 nM | 210 nM | – | EC50 (Ebolavirus [1]): 520 nM; EC50 (Bundibugyo virus): 960 nM; EC50 (Sudan ebolavirus): 420 nM; EC50 (Zaire ebolavirus): 210 nM; inhibition [5]: Weak_effect; EC50 (Reston ebolavirus): 400 nM; CC50 (HeLa): 13400 nM; inhibition (Influenza A virus): Weak_effect; EC50 (Tai Forest ebolavirus): 170 nM
CC1CCCN(c2ccc(NC(=O)c3ccc(CN4CCOCC4)cc3)cc2C(F)(F)F)C1 (stereo not given) | 3060 nM | 300 nM | 142 | –
CN1CCN(c2ccc(NC(=O)c3ccc(CN4CCOCC4)cc3)cc2C(F)(F)F)CC1 | 3930 nM | 970 nM | 37 | –
CC1(C)CCCN(c2ccc(NC(=O)c3ccc(CN4CCOCC4)cc3)cc2C(F)(F)F)C1 | 6580 nM | 370 nM | 107 | –
O=C(Nc1ccc(N2CCC3(CCC3)CC2)c(C(F)(F)F)c1)c1ccc(CN2CCOCC2)cc1 | 1110 nM | 90 nM | 209 | –
O=C(Nc1ccc(CN2CCOCC2)cc1)c1ccc(Cl)c(C(F)(F)F)c1 | 5660 nM | 7760 nM | 9 | –
O=C(Nc1ccc(C(F)(F)F)c(Cl)c1)c1ccc(CN2CCOCC2)cc1 | 3910 nM | 22100 nM | 1 | –
O=C(Nc1ccc(Cl)c(C(F)(F)F)c1)c1ccc(CN2CCOCC2)cc1 | 5600 nM | 8090 nM | 6 | –
O=C(Nc1ccc(C23CC4CC(CC(C4)C2)C3)cc1)c1ccc(CN2CCOCC2)cc1 | 8070 nM | 150 nM | 495 | –
